Measurements from a melting point compilation (Tetko et al.; mined from patent text by program, amines drawn as free bases though some values may be those of a salt).

melting point | Compound
192 to 195 °C | COc1ccc(-c2cnc3cc4cnn(CCO)c4cc3n2)cc1F
261 to 262 °C | CCc1nc2cccc(C(=O)O)c2n1Cc1ccc(-c2ccccc2-c2nnn[nH]2)cc1
110 to 112 °C | Cc1c(-c2ccc(OC3CCCC3)cc2)n(Cc2ccc(OCCBr)cc2)c2ccc(OCc3ccccc3)cc12
185 to 186 °C | CCCn1c(=O)c2c(nc(/C=C/c3cccs3)n2C)n(CCC)c1=O
104 to 105 °C | O=[N+]([O-])c1ccc(Cc2nnco2)cc1
152 °C | Cc1ccc2c(c1)c(N1CCNCC1)c(C#N)c(=O)n2Cc1ccccc1
87 to 89 °C | COc1cc(N)c(Cl)cc1C(=O)NCC1CCN(CCCCC(=O)c2cn(C)c3ccccc23)CC1
269 °C | O=C1c2ccc(NC(=O)C3CCCCC3)cc2C(=O)c2cc(NC(=O)C3CCCCC3)ccc21
43 to 45 °C | O=Cc1cc2ccsc2s1
159 to 161 °C | C=C(C)COc1cc(OC)cc(C(=O)OC)c1
86 to 88 °C | CCOC(=O)C(C(=O)OC(C)(C)C)c1c([N+](=O)[O-])cc([N+](=O)[O-])c2ccccc12 (stereo unspecified)
> 251 °C | COc1ccccc1CN[C@H]1CCCN[C@H]1C(C)(C)C (relative stereo)
147 to 149 °C | CCOC(=O)c1ccc(NC(=O)C(C)C)c(N)c1
176 to 178 °C | Nc1nc2c(c(N3CCNCC3)n1)SCCC2
142 to 144 °C | CC(=O)Oc1ccc2c(c1)C(C(Cl)(Cl)Cl)OC(C(Cl)(Cl)Cl)O2 (stereo unspecified)
95 °C | OCc1cc(-c2ccc(Cl)c(Cl)c2)n(Cc2cccc(Cl)c2)n1
157 to 159 °C | O=c1ccc2nc3ccccc3sc-2c1
93 to 96 °C | CCOC(=O)C(Cc1ccc(OC)cc1)c1cc2cc(C#N)ccc2s1 (stereo unspecified)
232 to 233 °C | NC(=O)c1ccc2c(c1)nc(-c1ccc(OCc3ccccc3)cc1)n2C1CCCC1
93.5 to 94.5 °C | O=C1NCC(CCc2ccccc2Br)O1 (stereo unspecified)
193 to 195 °C | O=Cc1ccc(O)c(O)c1Cl
139 to 140 °C | Cc1cc(N(C)c2ccn(-c3ccccc3)n2)cc(C)c1O
73 °C | C=CC(=O)OCCCCCCCCOc1ccc(C(=O)Oc2ccc(C=O)cc2)cc1

melting point | Compound
38 to 41 °C | O=CC1(c2ccc(Cl)cc2)CC1
120 to 122 °C | O=S(=O)(NN=C(Cl)c1ccccc1Br)c1ccccc1
205 to 206 °C | CONC(=O)C=C1SC(Nc2c(Cl)cccc2Cl)=NC1=O
166 to 168 °C | CC(C)NS(=O)(=O)c1ccc(S(N)(=O)=O)cc1
130 °C | CC(C)NCC(O)COc1ccc2c(=O)cc(-c3cc(O)cc(O)c3)oc2c1 (stereo unspecified)
203 to 205 °C | COC(=O)COc1c(I)cc(-c2c3ccccc3cc3sc4ccccc4c23)cc1I
65 to 66 °C | C=CCOc1cc(O)c(C=NO)c(Cl)c1
53 to 55 °C | CC(C)(C)c1ccc(CNc2nc(Nc3cccc(C(F)(F)F)c3)nc(C(F)(F)F)n2)cc1
120 to 122 °C | CC1Sc2ccccc2N1C(=S)Nc1cccc(Cl)c1 (stereo unspecified)
190 to 191 °C | COC(=O)C1=C(C)NC(c2ccccc2)=C(C(=O)O)C1c1ccc([N+](=O)[O-])cc1 (stereo unspecified)
277 to 279 °C | Clc1ccc2c(c1)N(c1ncnc3ccc(N4CCOCC4)cc13)CC2
105 to 106 °C | CN(C)C(=O)c1c(-c2ccccc2F)ccc2ccccc12
132 to 135 °C | CCOC(=O)N(CC)c1cccc(-c2ccc3nnc(C)n3n2)c1
171 to 175 °C | CCCCCCCCN(c1c([O-])[c+](N(CCCCCCCC)C2CC(C)(C)NC(C)(C)C2)[c+]1[O-])C1CC(C)(C)NC(C)(C)C1
184 to 186 °C | CC1(C)CN(C2CC3(C)C(CCC4C3CCC3(C)C(C(=O)CO)CCC43)CC2O)CCO1 (stereo unspecified)
259 to 260 °C | CCC(C)c1ccc(-n2c(-c3cc(C)c(OCCO)c(C)c3)nc3ccc(S(C)(=O)=O)cc3c2=O)cc1 (stereo unspecified)
148 to 150 °C | CN(C)C=C1Cc2c(Cl)cccc2C1=O
175 to 185 °C | CC(=O)Nc1ccc(Nc2c([N+](=O)[O-])cc(C(=O)O)cc2S(=O)(=O)NC(C)=O)cc1
168 °C | CC(C)C(NC(=O)c1ccc(-c2ccccc2)cc1)C(=O)O (stereo unspecified)
160 to 162 °C | O=C(O)c1cc(Oc2ccc(Cl)cc2)c(Cl)cc1[N+](=O)[O-]
140 to 144 °C | O=C(O)CCNC(=O)C=Cc1ccccc1
138 °C | CC(C)(C)[N+]([O-])=Cc1ccc(S(C)(=O)=O)o1
133 to 134 °C | O=c1c(Br)c(OCc2ccccc2C(F)(F)F)ccn1Cc1ccccc1

melting point | Compound
142 to 144 °C | CCOC(=O)C1=C(C)NC(C)=C(C(=O)OCC)C1c1cccc(Cl)c1
190 to 198 °C | Cc1ccc2nc(NC(=O)c3c(Cl)cccc3Cl)cc(NN)c2c1C
163 to 164 °C | CN(c1ccccc1C=CC1=NCCC1)C1CCCCC1
155 to 156 °C | Cc1ccc(S(=O)(=O)N2CCc3ccccc3C(Oc3ccccc3)C2)cc1 (stereo unspecified)
165 to 173 °C | CC(C)C[C@@H](CO)NC(=O)[C@@H](O)[C@@H](Cc1ccc(S(C)(=O)=O)cc1)NC(=O)OCc1ccccc1
274 to 275 °C | CC1=N/C(=C\c2c[nH]c3ncccc23)C(=O)N1Cc1ccccc1
135 to 136 °C | COC(=O)c1ccc2scc(-c3ccc(SC)cc3)c2c1
111 to 113 °C | COCc1cccc(C(=O)c2nc(OC)cc(OC)n2)c1[N+](=O)[O-]
102 to 105 °C | CCCCCCOc1cccc(C[C@H](NC(C)=O)[C@H](O)CNCc2cccc(CC)c2)c1
163 to 164 °C | CC[C@H](C)[C@H](NC(=O)OCc1ccccc1)C(=O)N[C@@H](C=O)Cc1c[nH]c2ccccc12
230 to 232 °C | COc1ccc(CN2CCC(c3cn(Cc4ccoc4)c4ncccc34)CC2)cc1C(=O)O
192 to 194 °C | Cn1ccc2ncnc(Oc3ccc(NC(=O)Nc4cccc(C(F)(F)F)c4)c(Cl)c3)c21
172 to 173 °C | CN1CCC(=C2c3cc(Br)ccc3CC(=O)c3sccc32)CC1
175 to 177 °C | COC(=O)C1(C(N)=O)OC1c1ccccc1 (stereo unspecified)
42 °C | O=[N+]([O-])c1ccc(F)cc1Br
139 °C | CN(Cc1cc(C(C)(C)C)c(O)c(C(C)(C)C)c1)n1ccnc1
176 °C | CS(=O)(=O)c1ccc(C(=O)C(=CO)C(=O)C2CC2)c(Cl)c1-c1nccs1
178 to 180 °C | Nc1sc2c(c1C(=O)c1cccc3ccccc13)CCN(Cc1ccccc1)C2
115 to 118 °C | Cc1nc(C)nc(NC(=O)NS(=O)(=O)c2ccccc2Cl)n1
134 to 136 °C | O=C(NCc1ccc(C(=O)C(F)(F)F)cc1)c1cccnc1Oc1cccnc1
243 to 244 °C | CC(NC(=O)Cc1cc(F)cc(F)c1)C(=O)NC1C(=O)NCc2ccccc21 (stereo unspecified)
143 to 144 °C | F[C@H]1C[C@H](COc2ccccc2Cl)N(c2ncnc3[nH]cnc23)C1
100 °C | CNc1ccc2ccccc2c1-c1c(P(c2ccccc2)c2ccccc2)ccc2ccccc12

Compound | melting point
O=C1OC(Br)c2cc(Br)ccc21 (stereo unspecified) | 100 °C
CCOC(=O)CCCC1CCN(CCOC(c2ccccc2)c2ccc(Cl)cc2)CC1 (stereo unspecified) | 117 to 119 °C
